Measurements published in PMC5352738, “Characterization of three pyranose dehydrogenase isoforms from the litter-decomposing basidiomycete Leucoagaricus meleagris (syn. Agaricus meleagris)” (Applied Microbiology and Biotechnology, 2016).
Each block holds one compound with its values, some of them ahead of it.

How the values were obtained:
Format in all cases: biochemical
AmPDH1 [1] = molecular target: T1, AmPDH1 (Macropsalliota meleagris, UniProt Q3L245); experiment: steady-state ferrocenium assay, […] nm; conditions: electron donor; 0.2 mM ferrocenium, 50 mM Na phosphate pH 7.5, 30 °C; read-out: AmPDH1 / K m
T1 construct: gene pdh1; full-length pdh1 (602 aa precursor) in pPICZB-His6, His6-tag kept, secreted from Pichia pastoris X33; N-glycosylated monomer, ~65 kDa deglycosylated; covalent FAD
T1 sequence (Q3L245 26-602): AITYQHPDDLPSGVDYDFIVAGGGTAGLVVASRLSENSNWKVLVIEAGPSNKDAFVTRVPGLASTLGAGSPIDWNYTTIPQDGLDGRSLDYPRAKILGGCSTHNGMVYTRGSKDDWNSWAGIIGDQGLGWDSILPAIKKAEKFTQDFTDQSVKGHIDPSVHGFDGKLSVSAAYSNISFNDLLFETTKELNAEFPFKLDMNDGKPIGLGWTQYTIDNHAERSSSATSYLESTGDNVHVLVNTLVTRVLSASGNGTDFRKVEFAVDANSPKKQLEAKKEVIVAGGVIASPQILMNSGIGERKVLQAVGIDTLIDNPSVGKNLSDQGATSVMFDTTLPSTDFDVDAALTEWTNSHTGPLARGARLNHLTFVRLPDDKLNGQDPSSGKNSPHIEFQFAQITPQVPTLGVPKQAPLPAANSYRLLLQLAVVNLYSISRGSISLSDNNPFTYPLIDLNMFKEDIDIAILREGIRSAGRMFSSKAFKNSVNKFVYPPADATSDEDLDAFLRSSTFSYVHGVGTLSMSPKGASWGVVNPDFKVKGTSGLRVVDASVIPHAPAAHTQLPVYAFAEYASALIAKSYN

AmPDH1 [2] = molecular target: T1, AmPDH1; experiment: steady-state kinetics, absorbance at […] nm; conditions: read-out: AmPDH1 / K m
AmPDH3 = molecular target: T2, AmPDH3 (Macropsalliota meleagris, UniProt Q0R4L2); experiment: steady-state kinetics, absorbance at […] nm; conditions: electron acceptor; 25 mM D-glucose, 100 mM Na borate pH 8.5, 30 °C; read-out: AmPDH3 / K m
T2 construct: gene pdh3; full-length pdh3 (600 aa precursor) in pPICZB-His6, His6-tag kept, secreted from Pichia pastoris X33; strongly N-glycosylated, ~65 kDa deglycosylated; standard yellow form with covalent FAD
T2 sequence (Q0R4L2 26-600): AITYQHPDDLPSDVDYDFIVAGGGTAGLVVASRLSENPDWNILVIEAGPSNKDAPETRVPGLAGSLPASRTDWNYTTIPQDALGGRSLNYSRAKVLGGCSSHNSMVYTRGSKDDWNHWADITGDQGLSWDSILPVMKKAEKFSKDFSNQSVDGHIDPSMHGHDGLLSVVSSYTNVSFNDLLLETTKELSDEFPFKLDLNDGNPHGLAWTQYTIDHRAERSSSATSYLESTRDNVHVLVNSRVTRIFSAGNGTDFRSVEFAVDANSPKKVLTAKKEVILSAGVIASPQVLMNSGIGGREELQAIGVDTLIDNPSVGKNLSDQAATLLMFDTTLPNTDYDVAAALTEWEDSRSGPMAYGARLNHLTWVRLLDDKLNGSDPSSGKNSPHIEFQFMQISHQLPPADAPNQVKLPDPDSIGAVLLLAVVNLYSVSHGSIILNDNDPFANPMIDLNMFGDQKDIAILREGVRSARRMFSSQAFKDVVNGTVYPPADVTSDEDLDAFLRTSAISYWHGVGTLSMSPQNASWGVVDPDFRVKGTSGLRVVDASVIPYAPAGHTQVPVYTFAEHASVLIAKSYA

AmPDH2 = molecular target: T3, AmPDH2 (Macropsalliota meleagris, UniProt Q3L243); experiment: steady-state kinetics, absorbance at […] nm; conditions: electron acceptor; 25 mM D-glucose, 100 mM Na borate pH 8.5, 30 °C; read-out: AmPDH2 / K m
T3 construct: gene pdh2; full-length pdh2 (600 aa precursor) in pPICZB-His6, His6-tag kept, secreted from Pichia pastoris X33; N-glycosylated, ~65 kDa deglycosylated; covalent FAD
T3 sequence (Q3L243 26-600): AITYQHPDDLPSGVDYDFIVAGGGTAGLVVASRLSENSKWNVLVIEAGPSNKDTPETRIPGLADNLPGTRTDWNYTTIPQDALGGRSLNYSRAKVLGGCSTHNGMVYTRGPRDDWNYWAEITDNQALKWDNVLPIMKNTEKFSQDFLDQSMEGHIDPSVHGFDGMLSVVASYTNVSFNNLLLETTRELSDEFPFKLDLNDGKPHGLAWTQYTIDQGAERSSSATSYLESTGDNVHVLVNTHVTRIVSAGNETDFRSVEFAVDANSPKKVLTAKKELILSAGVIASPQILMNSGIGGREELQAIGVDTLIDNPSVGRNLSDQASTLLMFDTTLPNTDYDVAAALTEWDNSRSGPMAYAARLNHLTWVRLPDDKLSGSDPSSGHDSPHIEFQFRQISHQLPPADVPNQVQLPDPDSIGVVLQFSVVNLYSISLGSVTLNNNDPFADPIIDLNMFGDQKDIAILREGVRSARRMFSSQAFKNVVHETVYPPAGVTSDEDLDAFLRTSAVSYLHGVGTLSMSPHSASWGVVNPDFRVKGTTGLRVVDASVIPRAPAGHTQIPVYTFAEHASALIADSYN

AmPDH1 [3] = molecular target: T1, AmPDH1; experiment: steady-state kinetics, absorbance at […] nm; conditions: electron acceptor; 25 mM D-glucose, 100 mM Na borate pH 8.5, 30 °C; read-out: AmPDH1 / K m

- Km (AmPDH1 [1]): 820 ± 10 µM
Compound: OC[C@H]1OC(O)[C@H](O)[C@@H](O)[C@@H]1O (stereo partly drawn) [D-glucose]

Compound: O=C1C=CC(=O)C=C1 [1,4-benzoquinone]
- Km (AmPDH1 [2]): 1380 ± 280 µM

- Km (AmPDH3): 10.3 ± 0.9 µM
- Km (AmPDH2): 20.1 ± 2.3 µM
- Km (AmPDH1 [3]): 161 ± 38 µM
Compound: C1=CCC=C1.C1=CCC=C1.[Fe+3] [ferrocenium cation]
